Experiments:
HuM2e antibody 23K12 = assay type: binding, human
[1] = system: anti-M2 human monoclonal antibody Z3G1; assay type: binding

619 (SLLTEVETPIRNEWGCRCNASSD; epitope peptide) [compound 619]
Signal (peptides that bind to 23K21 and 8I10) (HuM2e antibody 23K12): 807 | Signal (peptides that bind to Z3G1) [1]: 2454

562 (SLLTEVETPIRWEWGCRCNDSSD; epitope peptide) [compound 562]
Signal (peptides that bind to 23K21 and 8I10) (HuM2e antibody 23K12): 890 | Signal (peptides that show specific binding to Z3G1) [1]: 2302

553 (SLLTEVTTPIRNEWGCRCNDSSD; epitope peptide) [compound 553]
Signal (peptides that bind to 23K21 and 8I10) (HuM2e antibody 23K12): 909 | Signal (peptides that show specific binding to Z3G1) [1]: 2102

351 (SLLCEVGSLLTEC; epitope peptide) [compound 351]
Signal (peptides that bind to 23K21 and 8I10) (HuM2e antibody 23K12): 1564 | Signal (peptides that show specific binding to Z3G1) [1]: 2438

696 (SLLTEVETPIRNEHGCRCNDSSD; epitope peptide) [compound 696]
Signal (peptides that bind to 23K21 and 8I10) (HuM2e antibody 23K12): 719 | Signal (peptides that show specific binding to Z3G1) [1]: 2398

551 (SLLTEVATPIRNEWGCRCNDSSD; epitope peptide) [compound 551]
Signal (peptides that bind to 23K21 and 8I10) (HuM2e antibody 23K12): 914 | Signal (peptides that show specific binding to Z3G1) [1]: 2093

668 (SLLTEVETPIRNEWGYRCNDSSD; epitope peptide) [compound 668]
Signal (peptides that bind to 23K21 and 8I10) (HuM2e antibody 23K12): 739 | Signal (peptides that show specific binding to Z3G1) [1]: 2410

288 (CSCLCEVGMSLLTEV; epitope peptide) [compound 288]
Signal (peptides that bind to 23K21 and 8I10) (HuM2e antibody 23K12): 2154 | Signal (peptides that bind to Z3G1) [1]: 1812

663 (MCLCTCVGMSLLTEV; epitope peptide) [compound 663]
Signal (peptides that bind to 23K21 and 8I10) (HuM2e antibody 23K12): 746 | Signal (peptides that bind to Z3G1) [1]: 2509

670 (SLLTEVETWIRNEWGCRCNDSSD; epitope peptide) [compound 670]
Signal (peptides that bind to 23K21 and 8I10) (HuM2e antibody 23K12): 736 | Signal (peptides that show specific binding to Z3G1) [1]: 2146

477 (SLLTECGSLLCEV; epitope peptide) [compound 477]
Signal (peptides that bind to 23K21 and 8I10) (HuM2e antibody 23K12): 1206 | Signal (peptides that show specific binding to Z3G1) [1]: 2403

580 (SLCTEVGCSLLTEV; epitope peptide) [compound 580]
Signal (peptides that bind to 23K21 and 8I10) (HuM2e antibody 23K12): 858 | Signal (peptides that show specific binding to Z3G1) [1]: 2382

459 (SLITEVETPIRNEWGCRCNDSSD; epitope peptide) [compound 459]
Signal (peptides that bind to 23K21 and 8I10) (HuM2e antibody 23K12): 1277 | Signal (peptides that show specific binding to Z3G1) [1]: 1996

397 (SLLTEVETPIRNEWGCRCNQSSD; epitope peptide) [compound 397]
Signal (peptides that bind to 23K21 and 8I10) (HuM2e antibody 23K12): 842 | Signal (peptides that bind to Z3G1) [1]: 2376

294 (MSCLCECGMSLLTEV; epitope peptide) [compound 294]
Signal (peptides that bind to 23K21 and 8I10) (HuM2e antibody 23K12): 2039 | Signal (peptides that bind to Z3G1) [1]: 1006

666 (SLLTEVETPIRNAWGCRCNDSSD; epitope peptide) [compound 666]
Signal (peptides that bind to 23K21 and 8I10) (HuM2e antibody 23K12): 743 | Signal (peptides that show specific binding to Z3G1) [1]: 2334

667 (SLLTEVETPIRNEWGIRCNDSSD; epitope peptide) [compound 667]
Signal (peptides that bind to 23K21 and 8I10) (HuM2e antibody 23K12): 739 | Signal (peptides that show specific binding to Z3G1) [1]: 2211

597 (SLLTEVETGIRNEWGCRCNDSSD; epitope peptide) [compound 597]
Signal (peptides that bind to 23K21 and 8I10) (HuM2e antibody 23K12): 835 | Signal (peptides that show specific binding to Z3G1) [1]: 2366

320 (SLLTEVGSLLTEV; epitope peptide) [compound 320]
Signal (peptides that bind to 23K21 and 8I10) (HuM2e antibody 23K12): 1794 | Signal (peptides that show specific binding to Z3G1) [1]: 2530

524 (SLLTEVETPIDNEWGCRCNDSSD; epitope peptide) [compound 524]
Signal (peptides that bind to 23K21 and 8I10) (HuM2e antibody 23K12): 1001 | Signal (peptides that show specific binding to Z3G1) [1]: 2337

556 (SLLTELETPIRNEWGCRCNDSSD; epitope peptide) [compound 556]
Signal (peptides that bind to 23K21 and 8I10) (HuM2e antibody 23K12): 900 | Signal (peptides that show specific binding to Z3G1) [1]: 1380

453 (SLLTEVETPIRNEAGCRCNDSSD; epitope peptide) [compound 453]
Signal (peptides that bind to 23K21 and 8I10) (HuM2e antibody 23K12): 1311 | Signal (peptides that show specific binding to Z3G1) [1]: 2383

699 (SLLTEVETPIRNEWGCRYNDSSD; epitope peptide) [compound 699]
Signal (peptides that bind to 23K21 and 8I10) (HuM2e antibody 23K12): 716 | Signal (peptides that bind to Z3G1) [1]: 2169

324 (SLCTEVGSLLTEV; epitope peptide) [compound 324]
Signal (peptides that bind to 23K21 and 8I10) (HuM2e antibody 23K12): 1772 | Signal (peptides that show specific binding to Z3G1) [1]: 1780

435 (SLLTEVETP; epitope peptide) [compound 435]
Signal (peptides that bind to 23K21 and 8I10) (HuM2e antibody 23K12): 899 | Signal (peptides that bind to Z3G1) [1]: 2380

527 (SLLTEVEQPIRNEWGCRCNDSSD; epitope peptide) [compound 527]
Signal (peptides that bind to 23K21 and 8I10) (HuM2e antibody 23K12): 986 | Signal (peptides that show specific binding to Z3G1) [1]: 2344

328 (SLETEVETPIRNEWGCRCNDSSD; epitope peptide) [compound 328]
Signal (peptides that bind to 23K21 and 8I10) (HuM2e antibody 23K12): 1720 | Signal (peptides that show specific binding to Z3G1) [1]: 1963

705 (SLLTEVKTPIRNEWGCRCNDSSD; epitope peptide) [compound 705]
Signal (peptides that bind to 23K21 and 8I10) (HuM2e antibody 23K12): 712 | Signal (peptides that show specific binding to Z3G1) [1]: 1905

430 (SLLTEVETPIRNEWGCRCNDSRD; epitope peptide) [compound 430]
Signal (peptides that bind to 23K21 and 8I10) (HuM2e antibody 23K12): 833 | Signal (peptides that bind to Z3G1) [1]: 2373

627 (SLLTEVETPIRIEWGCRCNDSSD; epitope peptide) [compound 627]
Signal (peptides that bind to 23K21 and 8I10) (HuM2e antibody 23K12): 789 | Signal (peptides that show specific binding to Z3G1) [1]: 2444

401 (SLLTEVETPIRNEWGCRCNWSSD; epitope peptide) [compound 401]
Signal (peptides that bind to 23K21 and 8I10) (HuM2e antibody 23K12): 999 | Signal (peptides that bind to Z3G1) [1]: 2556

201 (CEVETPIRNEWGSRSNCSLLTEVETC; epitope peptide) [compound 201]
Signal (peptides that bind to 23K21 and 8I10) (HuM2e antibody 23K12): 1007 | Signal (peptides that show specific binding to Z3G1) [1]: 2288

538 (LLLTEVETPIRNEWGCRCNDSSD; epitope peptide) [compound 538]
Signal (peptides that bind to 23K21 and 8I10) (HuM2e antibody 23K12): 950 | Signal (peptides that show specific binding to Z3G1) [1]: 1399

383 (CSLLTEVGCSLLTEC; epitope peptide) [compound 383]
Signal (peptides that bind to 23K21 and 8I10) (HuM2e antibody 23K12): 1380 | Signal (peptides that bind to Z3G1) [1]: 2486

713 (SLLTEVETPIRNEWGQRCNDSSD; epitope peptide) [compound 713]
Signal (peptides that bind to 23K21 and 8I10) (HuM2e antibody 23K12): 705 | Signal (peptides that show specific binding to Z3G1) [1]: 2369

697 (SLLTEVETPIRNEWGCRINDSSD; epitope peptide) [compound 697]
Signal (peptides that bind to 23K21 and 8I10) (HuM2e antibody 23K12): 718 | Signal (peptides that show specific binding to Z3G1) [1]: 2409

682 (SLLTEVETPIRNEWGSRCNDSSD; epitope peptide) [compound 682]
Signal (peptides that bind to 23K21 and 8I10) (HuM2e antibody 23K12): 729 | Signal (peptides that show specific binding to Z3G1) [1]: 2346

719 (SLLTEVETPIRNEWGCTCNDSSD; epitope peptide) [compound 719]
Signal (peptides that bind to 23K21 and 8I10) (HuM2e antibody 23K12): 700 | Signal (peptides that show specific binding to Z3G1) [1]: 2347

239 (CSLLTEVETCEVETPIRNEWGSRSNC; epitope peptide) [compound 239]
Signal (peptides that bind to 23K21 and 8I10) (HuM2e antibody 23K12): 821 | Signal (peptides that show specific binding to Z3G1) [1]: 2549

563 (SLLTEVETPIRNEWGGRCNDSSD; epitope peptide) [compound 563]
Signal (peptides that bind to 23K21 and 8I10) (HuM2e antibody 23K12): 887 | Signal (peptides that show specific binding to Z3G1) [1]: 2270

707 (SLLTEVETPIANEWGCRCNDSSD; epitope peptide) [compound 707]
Signal (peptides that bind to 23K21 and 8I10) (HuM2e antibody 23K12): 708 | Signal (peptides that show specific binding to Z3G1) [1]: 2302

680 (SLLTEVETPIVNEWGCRCNDSSD; epitope peptide) [compound 680]
Signal (peptides that bind to 23K21 and 8I10) (HuM2e antibody 23K12): 729 | Signal (peptides that show specific binding to Z3G1) [1]: 2366

398 (SLLTEVETPIRNEWGCRCNRSSD; epitope peptide) [compound 398]
Signal (peptides that bind to 23K21 and 8I10) (HuM2e antibody 23K12): 890 | Signal (peptides that bind to Z3G1) [1]: 2514

302 (ASLLTEVGSCLTEV; epitope sequence) [compound 302]
Signal (peptides that bind to 23K21 and 8I10) (HuM2e antibody 23K12): 1944 | Signal (peptides that show specific binding to Z3G1) [1]: 2770

343 (MSLLTEVGMSLLTEC; epitope peptide) [compound 343]
Signal (peptides that bind to 23K21 and 8I10) (HuM2e antibody 23K12): 1630 | Signal (peptides that bind to Z3G1) [1]: 2831

508 (MSLCTEVGCSLLTEV; epitope peptide) [compound 508]
Signal (peptides that bind to 23K21 and 8I10) (HuM2e antibody 23K12): 1049 | Signal (peptides that bind to Z3G1) [1]: 2832

396 (SLLTEVETPIRNEWGCRCNPSSD; epitope peptide) [compound 396]
Signal (peptides that bind to 23K21 and 8I10) (HuM2e antibody 23K12): 849 | Signal (peptides that bind to Z3G1) [1]: 2445

529 (SLLTEVETNIRNEWGCRCNDSSD; epitope peptide) [compound 529]
Signal (peptides that bind to 23K21 and 8I10) (HuM2e antibody 23K12): 978 | Signal (peptides that show specific binding to Z3G1) [1]: 2253

393 (SLLTEVETPIRNEWGCRCNLSSD; epitope peptide) [compound 393]
Signal (peptides that bind to 23K21 and 8I10) (HuM2e antibody 23K12): 1334 | Signal (peptides that bind to Z3G1) [1]: 2634

613 (SLLTEVETPIRNEWGCRCNHSSD; epitope peptide) [compound 613]
Signal (peptides that bind to 23K21 and 8I10) (HuM2e antibody 23K12): 812 | Signal (peptides that bind to Z3G1) [1]: 2439

454 (SLLTEVETPIMNEWGCRCNDSSD; epitope peptide) [compound 454]
Signal (peptides that bind to 23K21 and 8I10) (HuM2e antibody 23K12): 1308 | Signal (peptides that show specific binding to Z3G1) [1]: 2369

501 (SLLTEVETPIRNEWGCCCNDSSD; epitope peptide) [compound 501]
Signal (peptides that bind to 23K21 and 8I10) (HuM2e antibody 23K12): 1065 | Signal (peptides that show specific binding to Z3G1) [1]: 2515

566 (SLLTEVCTPIRNEWGCRCNDSSD; epitope peptide) [compound 566]
Signal (peptides that bind to 23K21 and 8I10) (HuM2e antibody 23K12): 881 | Signal (peptides that show specific binding to Z3G1) [1]: 1210

440 (SLLTEVETPIRNEW; epitope peptide) [compound 440]
Signal (peptides that bind to 23K21 and 8I10) (HuM2e antibody 23K12): 750 | Signal (peptides that bind to Z3G1) [1]: 2334

451 (CSLLTEVGMSLLTEC; epitope peptide) [compound 451]
Signal (peptides that bind to 23K21 and 8I10) (HuM2e antibody 23K12): 1326 | Signal (peptides that bind to Z3G1) [1]: 2613

557 (MSCLTEVGCSLLTEV; epitope peptide) [compound 557]
Signal (peptides that bind to 23K21 and 8I10) (HuM2e antibody 23K12): 899 | Signal (peptides that bind to Z3G1) [1]: 2506

645 (SLLTEVVTPIRNEWGCRCNDSSD; epitope peptide) [compound 645]
Signal (peptides that bind to 23K21 and 8I10) (HuM2e antibody 23K12): 763 | Signal (peptides that show specific binding to Z3G1) [1]: 1492

— patent US8932597B2 (priority 2008, dated 2015)
